Data from ChEMBL document CHEMBL5050844 (2019).

Legend:
[1] = Induction of anti-CD3 antibodies-stimulated human T cell activation at 1 uM assessed fold increase in IL-2 secretion measured by ELISA assay; type: functional, T cell line; further: reference of the scale not given here
[2] = target: E3 ubiquitin-protein ligase CBL-B (Homo sapiens, UniProt Q13191); assay: Inhibition of N-terminal Avi-tagged human CBL-B (36 to 427 residues) incubated with 60 nM Src kinase for 1.5 hrs followed by incubation with fluorescently labeled UbcH5B-Ub for 1 hr and measured by TR-FRET assay; type: single protein
E3 ubiquitin-protein ligase CBL-B, sequence (Q13191 whole entry, the tested form may be a part): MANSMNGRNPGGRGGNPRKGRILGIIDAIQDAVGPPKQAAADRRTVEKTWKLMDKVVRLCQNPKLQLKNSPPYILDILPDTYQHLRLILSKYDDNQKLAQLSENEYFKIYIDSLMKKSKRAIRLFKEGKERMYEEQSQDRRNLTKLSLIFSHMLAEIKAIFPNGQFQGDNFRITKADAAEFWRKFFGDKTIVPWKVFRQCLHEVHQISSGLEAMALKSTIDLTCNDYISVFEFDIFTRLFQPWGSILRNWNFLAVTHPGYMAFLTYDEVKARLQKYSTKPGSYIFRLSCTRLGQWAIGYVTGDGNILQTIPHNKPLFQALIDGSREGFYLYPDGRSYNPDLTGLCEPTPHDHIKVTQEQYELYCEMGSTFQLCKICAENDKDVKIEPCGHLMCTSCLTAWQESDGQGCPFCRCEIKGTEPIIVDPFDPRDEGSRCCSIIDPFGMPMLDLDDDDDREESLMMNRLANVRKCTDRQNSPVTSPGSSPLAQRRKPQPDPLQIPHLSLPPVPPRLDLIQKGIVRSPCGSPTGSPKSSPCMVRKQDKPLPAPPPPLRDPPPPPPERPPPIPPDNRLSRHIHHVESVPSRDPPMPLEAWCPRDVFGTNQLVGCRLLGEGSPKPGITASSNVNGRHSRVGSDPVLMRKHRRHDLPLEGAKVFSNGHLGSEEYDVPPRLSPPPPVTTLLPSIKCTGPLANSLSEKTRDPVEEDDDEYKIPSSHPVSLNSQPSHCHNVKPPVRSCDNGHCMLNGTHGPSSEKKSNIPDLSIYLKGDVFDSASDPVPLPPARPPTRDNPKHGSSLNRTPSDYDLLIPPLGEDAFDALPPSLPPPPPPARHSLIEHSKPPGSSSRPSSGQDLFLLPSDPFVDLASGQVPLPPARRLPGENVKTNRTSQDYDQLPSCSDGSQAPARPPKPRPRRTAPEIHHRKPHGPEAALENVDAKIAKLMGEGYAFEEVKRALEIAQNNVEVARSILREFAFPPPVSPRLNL

[3] = Induction of anti-CD3/CD28 antibodies-stimulated human T cell activation at 0.3 uM assessed fold increase in IL-2 secretion measured by ELISA assay; type: functional, T cell line
[4] = Induction of anti-CD3/CD28 antibodies-stimulated human T cell activation at 1 uM assessed fold increase in CD25 expression measured by ELISA assay; type: functional, T cell line
[5] = Induction of anti-CD3/CD28 antibodies-stimulated human T cell activation at 0.3 uM assessed fold increase in CD25 expression measured by ELISA assay; type: functional, T cell line
[6] = Induction of anti-CD3/CD28 antibodies-stimulated human T cell activation at 1 uM assessed fold increase in IL-2 secretion measured by ELISA assay; type: functional, T cell line
[7] = Induction of anti-CD3 antibodies-stimulated human T cell activation at 1 uM assessed fold increase in CD25 expression measured by ELISA assay; type: functional, T cell line; further: reference of the scale not given here

IC50 [2] [nM] | SMILES | fold change (FC) [1] | fold change (FC) [3] | fold change (FC) [4] | fold change (FC) [5] | fold change (FC) [6] | fold change (FC) [7] | FC [1] | FC [3] | FC [4] | FC [5] | FC [6] | FC [7]
< 100 | Cn1cnnc1CC1(c2cccc(N3Cc4c(cc(CN5CC[C@H](c6ccccc6)C5)cc4C(F)(F)F)C3=O)c2)COC1 | >=0.201 | 5 | 1.01 | 1.01 | >=7.5 | >=1.001 |  |  |  |  |  | 
< 100 | Cn1cnnc1CC1(c2cccc(N3Cc4c(cc(CN5CCCCC(F)C5)cc4C(F)(F)F)C3=O)c2)COC1 (centres undefined) | >=0.201 | 5 | 1.31 | 1.31 | >=7.5 | >=1.001 |  |  |  |  |  | 
< 100 | Cn1cnnc1CC1(c2cccc(N3Cc4c(cc(CN5CC[C@H](CO)C(F)(F)C5)cc4C(F)(F)F)C3=O)c2)COC1 | 0.151 | >=7.5 | 1.31 | 1.31 | >=7.5 | >=1.001 |  |  |  |  |  | 
< 100 | Cn1cnnc1CC1(c2cccc(N3Cc4c(cc(CN5CC6C(C5)C6(F)F)cc4C(F)(F)F)C3=O)c2)COC1 (centres undefined) | >=0.201 | 5 | 1.31 | 1.31 | >=7.5 | >=1.001 |  |  |  |  |  | 
< 100 | Cn1cnnc1CC1(c2cccc(N3Cc4c(cc(CN5CCCC(F)(F)C5)cc4C(F)(F)F)C3=O)c2)COC1 | >=0.201 | >=7.5 | 1.51 | 1.51 | >=7.5 | >=1.001 |  |  |  |  |  | 
< 100 | Cn1cnnc1CC1(c2cccc(N3Cc4c(cc(CN5CCC6CC6C5)cc4C(F)(F)F)C3=O)c2)COC1 (centres undefined) | >=0.201 | >=7.5 | 1.31 | 1.31 | >=7.5 | >=1.001 |  |  |  |  |  | 
< 100 | Cn1cnnc1CC1(c2cccc(N3Cc4c(cc(CN5CC6CC5CO6)cc4C(F)(F)F)C3=O)c2)COC1 (centres undefined) | 0.051 | 2.51 | 1.01 | 1.01 | 5 | 0.801 |  |  |  |  |  | 
< 100 | Cn1cnnc1CC1(c2cccc(N3Cc4c(cc(CN5CCC(C)(F)C5)cc4C(F)(F)F)C3=O)c2)COC1 (centres undefined) | >=0.201 | >=7.5 | 1.31 | 1.31 | >=7.5 | >=1.001 |  |  |  |  |  | 
< 100 | C[C@H]1CN(Cc2cc3c(c(C(F)(F)F)c2)CN(c2cccc(C4(Cc5nncn5C)COC4)c2)C3=O)CCO1 | >=0.201 | 5 | 1.31 | 1.31 | >=7.5 | 0.601 |  |  |  |  |  | 

Second part, the compound before the results:

SMILES | IC50 [2] [nM] | fold change (FC) [1] | fold change (FC) [3] | fold change (FC) [4] | fold change (FC) [5] | fold change (FC) [6] | fold change (FC) [7] | FC [1] | FC [3] | FC [4] | FC [5] | FC [6] | FC [7]
Cc1nc2c(o1)CCN(Cc1cc3c(c(C(F)(F)F)c1)CN(c1cccc(C4(Cc5nncn5C)COC4)c1)C3=O)C2 | < 100 | >=0.201 | 5 | 1.31 | 1.01 | >=7.5 | >=1.001 |  |  |  |  |  | 
Cn1cnnc1CC1(c2cccc(N3Cc4c(cc(OC5CC5)cc4C(F)(F)F)C3=O)c2)COC1 | < 100 | 0.151 | 1.01 | 1.01 | 1.01 | 2.51 | >=1.001 |  |  |  |  |  | 
Cn1cnnc1CC1(c2cccc(NC(=O)c3cc(OC(F)F)cc(C4CC4)n3)c2)COC1 | < 100 | >=0.201 | 5 | 1.01 | 1.01 | >=7.5 | >=1.001 |  |  |  |  |  | 
Cn1cnnc1CC1(c2cccc(NC(=O)c3cc(N4CC(C(F)F)C4)nc(C4CC4)n3)c2)COC1 | < 100 | 0.101 | 2.51 | 1.01 | 1.01 | >=7.5 | 0.801 |  |  |  |  |  | 
Cc1cc(C(=O)Nc2cccc(C3([C@H](F)c4nncn4C)COC3)c2)nc(C2CC2)n1 | < 100 | 0.151 | 2.51 | 1.01 | 1.01 | 5 | >=1.001 |  |  |  |  |  | 
Cn1cnnc1CC1(c2cccc(N3Cc4c(cc(CN5CCCc6c5cnn6C)cc4C(F)(F)F)C3=O)c2)COC1 | < 100 | >=0.201 | 5 | 1.01 | 1.01 | >=7.5 | >=1.001 |  |  |  |  |  | 
Cc1conc1CC1(c2cccc(N3Cc4c(cc(CN5CCC6(CC6)C5)cc4C(F)(F)F)C3=O)c2)COC1 | < 100 | >=0.201 | >=7.5 | 1.31 | 1.31 | >=7.5 | >=1.001 |  |  |  |  |  | 
Cn1cnnc1CC1(c2cccc(N3Cc4c(cc(C5=CCCOC5)cc4C(F)(F)F)C3=O)c2)COC1 | < 100 |  |  |  |  |  |  | 0.101 | 2.51 | 1.01 | 1.01 | 2.51 | 0.801
CN1CCN(c2cc3c(c(C(F)(F)F)c2)CN(c2cccc(C4(Cc5nncn5C)COC4)c2)C3=O)C(=O)C1 | < 100 | 0.051 | 1.01 | 1.01 | 1.01 | 1.01 | 0.801 |  |  |  |  |  | 
Cc1conc1CC1(c2cccc(NC(=O)c3cc(CN4CCC5(CC5)C4)nc(C4CC4)n3)c2)COC1 | < 100 | >=0.201 | >=7.5 | 1.31 | 1.31 | >=7.5 | >=1.001 |  |  |  |  |  | 
C[C@H](Cc1nncn1C)c1cc(C2CCOC2)nc(N2Cc3c(cccc3C(F)(F)F)C2=O)c1 (some centres undefined) | ≤ 1000 | <=0.05 | 1.01 | 1.01 | 1.01 | 1.01 | <=0.6 |  |  |  |  |  | 
Cn1cnnc1CC1(c2cccc(N3Cc4c(cc(CN5Cc6ccc(F)cc6C5)cc4C(F)(F)F)C3=O)c2)COC1 | < 100 | >=0.201 | 5 | 1.31 | 1.31 | >=7.5 | >=1.001 |  |  |  |  |  | 
Cn1cnnc1CC1(c2cccc(N3Cc4c(cc(N5CCC(C(F)F)C5)cc4C(F)(F)F)C3=O)c2)COC1 (centres undefined) | < 100 | <=0.05 | 1.01 | 1.01 | 1.01 | 2.51 | 0.601 |  |  |  |  |  | 
